In US9963448B2, “Bicyclic inhibitors of PAD4” (Padlock Therapeutics, Inc., priority 2015, dated 2018):
Like-named read-outs stand apart in the source and are kept apart here.

Target: hPAD4 (Homo sapiens, UniProt Q9UM07)
Experiment: hPAD4 RFMS (RapidFire mass spectrometry) PAD4 inhibition assay;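 on hPAD4 RFMS pIC50: grade E means pIC50 at most 4 and F means pIC50 4.0 to 5.0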
Type: biochemical
Conditions: hPAD4 enzyme, RFMS readout
Experimental: Compounds of the present invention were assayed as inhibitors of PAD4 using the assay protocol described below.
Compound stock solutions were stored at RT. […] Final assay conditions were as follows:
Total incubation time: 65 mins at 37° C.
Stop solution: 40 μl 5% TCA in ACN
The compound numbers correspond to the compound numbers in Table 1. […] The term pIC50=−log(IC50). […] “NA” stands for “not assayed.”

[1] = pIC50=−log(IC50), read-out: hPAD4 RFMS pIC50 (converted)

Chain of hPAD4 (Q9UM07 whole entry): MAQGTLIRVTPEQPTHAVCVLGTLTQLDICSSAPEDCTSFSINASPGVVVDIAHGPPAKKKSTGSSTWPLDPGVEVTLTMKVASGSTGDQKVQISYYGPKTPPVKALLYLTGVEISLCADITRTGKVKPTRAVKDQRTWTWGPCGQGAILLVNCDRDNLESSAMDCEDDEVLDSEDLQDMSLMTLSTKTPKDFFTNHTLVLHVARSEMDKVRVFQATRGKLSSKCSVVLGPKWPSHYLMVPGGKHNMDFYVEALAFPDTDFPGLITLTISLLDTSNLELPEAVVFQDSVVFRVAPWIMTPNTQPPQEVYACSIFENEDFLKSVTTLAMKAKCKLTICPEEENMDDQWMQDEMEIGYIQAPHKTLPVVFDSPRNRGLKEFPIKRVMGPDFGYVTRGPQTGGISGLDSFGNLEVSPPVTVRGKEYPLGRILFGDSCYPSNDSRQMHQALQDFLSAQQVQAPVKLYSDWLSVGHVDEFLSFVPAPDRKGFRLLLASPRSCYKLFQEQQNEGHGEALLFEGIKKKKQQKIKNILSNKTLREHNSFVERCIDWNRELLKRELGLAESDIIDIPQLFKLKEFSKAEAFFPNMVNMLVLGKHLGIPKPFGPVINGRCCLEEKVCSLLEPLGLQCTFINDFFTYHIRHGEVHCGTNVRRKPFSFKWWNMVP

Compound	IC50 [1]	IC50 (read-out: hPAD4 RFMS IC50)
Cn1c(-c2cc3ccccc3n2CC2CC2)nc2cc(C(=O)N3CC[C@@H]4CCN[C@@H]4C3)ccc21 [Compound I-2]	10 to 100 µM	> 10 µM
Cn1c(-c2cc3cccnc3n2CC2CC2)nc2cc(C(=O)N3CCC4CCNC4C3)ccc21 (stereo not shown) [Compound I-6]	1 to 10 µM	1 to 5 µM
Cn1c(-c2cc3ccccc3n2CC2CC2)nc2cc(C(=O)N3CC[C@H]4CCN[C@H]4C3)ccc21 [Compound I-7]	< 1 µM	< 1 µM
Cn1c(-c2cc3cccnc3n2CC2CC2)nc2cc(C(=O)N3CC4CNC4C3)ccc21 (stereo not shown) [Compound I-38]	> 100 µM	> 10 µM
Cn1c(-c2cc3cccnc3n2CC2CC2)nc2cc(C(=O)N3CCC4(CCCN4)C3)ccc21 (stereo not shown) [Compound I-39]	10 to 100 µM	> 10 µM
Cn1c(-c2cc3cccnc3n2CC2CC2)nc2cc(C(=O)N3CCC4CNC4C3)ccc21 (stereo not shown) [Compound I-40]	10 to 100 µM	> 10 µM
Cn1c(-c2cc3cccnc3n2CC2CC2)nc2cc(C(=O)N3CCCC4(CCCN4)C3)ccc21 (stereo not shown) [Compound I-41]	10 to 100 µM	> 10 µM
Cn1c(-c2cc3cccnc3n2CC2CC2)nc2cc(C(=O)N3CCCC4(CCN4)C3)ccc21 (stereo not shown) [Compound I-42]	> 100 µM	> 10 µM
Cn1c(-c2cc3cccnc3n2CC2CC2)nc2cc(C(=O)N3CCC[C@@H]4CNC[C@@H]43)ccc21 [Compound I-43]	> 100 µM	> 10 µM
Cn1c(-c2cc3cccnc3n2CC2CC2)nc2cc(C(=O)N3CCC[C@H]4CNC[C@H]43)ccc21 [Compound I-44]	> 100 µM	> 10 µM
Cn1c(-c2cc3cccnc3n2CC2CC2)nc2cc(C(=O)N3CCCC4(CCCNC4)C3)ccc21 (stereo not shown) [Compound I-45]	> 100 µM	> 10 µM
Cn1c(-c2cc3cccnc3n2CC2CC2)nc2cc(C(=O)N3CCCC4(CCNC4)C3)ccc21 (stereo not shown) [Compound I-46]	> 100 µM	> 10 µM
Cn1c(-c2cc3cccnc3n2CC2CC2)nc2cc(C(=O)N3C4CCC3CC(N)C4)ccc21 (stereo not shown) [Compound I-47]	> 100 µM	> 10 µM
Cn1c(-c2cc3cccnc3n2CC2CC2)nc2cc(C(=O)N3CCCC4(CCCCN4)C3)ccc21 (stereo not shown) [Compound I-48]	10 to 100 µM	> 10 µM
Cn1c(-c2cc3cccnc3n2CC2CC2)nc2cc(C(=O)N3CC(N)CC(F)(F)C3)ccc21 (stereo not shown) [Compound I-51]	10 to 100 µM	> 10 µM
Cn1c(-c2cc3cccnc3n2CC2CC2)nc2cc(C(=O)N3CCCC4NCCCC43)ccc21 (stereo not shown) [Compound I-53]	> 100 µM	> 10 µM
Cn1c(-c2cc3cccnc3n2CC2CC2)nc2cc(C(=O)N3CCC[C@H]4NCC[C@H]43)ccc21 [Compound I-60]	10 to 100 µM	> 10 µM
Cn1c(-c2cc3cccnc3n2CC2CC2)nc2cc(C(=O)N3CCC[C@@H]4NCC[C@@H]43)ccc21 [Compound I-61]	> 100 µM	> 10 µM

Other lines, results leading:

IC50 [1]	IC50 (read-out: hPAD4 RFMS IC50)	Compound
1 to 10 µM	1 to 5 µM	COCCn1c(-c2nc3cc(C(=O)N4C[C@H](N)CC[C@@H]4C)cc(OC)c3n2C)cc2cccnc21 (racemic) [Compound I-170]
1 to 10 µM	1 to 5 µM	CCn1c(-c2nc3cc(C(=O)N4CC[C@@H]5CCN[C@@H]5C4)cc(OC)c3n2C)cc2cccnc21 (single isomer, unassigned) [Compound I-3]
10 to 100 µM	> 10 µM	CCn1c(-c2nc3cc(C(=O)N4CC[C@H]5CCN[C@H]5C4)cc(OC)c3n2C)cc2cccnc21 (single isomer, unassigned) [Compound I-14]
10 to 100 µM	> 10 µM	CCn1c(-c2nc3cc(C(=O)N4CC[C@H]5CCN[C@H]5C4)ccc3n2C)cc2cccnc21 [Compound I-1]
10 to 100 µM	> 10 µM	COc1cc(C(=O)N2CC[C@@H]3CCN[C@@H]3C2)cc2nc(-c3cc4cncnc4n3CC3CC3)n(C)c12 [Compound I-4, 5-[(3aS,7aS)-octahydro-1H-pyrrolo[2,3-c]pyridine-6-carbonyl]-2-[7-(cyclopropylmethyl)-7H-pyrrolo[2,3-d]pyrimidin-6-yl]-7-methoxy-1-methyl-1H-1,3-benzodiazole]
10 to 100 µM	> 10 µM	CCn1c(-c2nc3cc(C(=O)N4CC[C@@H]5CCN[C@@H]5C4)ccc3n2C)cc2cccnc21 [Compound I-5]
< 1 µM	< 1 µM	COc1cc(C(=O)N2CCC3CCNC3C2)cc2nc(-c3cc4cccnc4n3CC3CC3)n(C)c12 (stereo not shown) [Compound I-8]
1 to 10 µM	1 to 5 µM	CCn1c(-c2nc3cc(C(=O)N4CCC5CCNC5C4)cc(OC)c3n2C)cc2cccnc21 (stereo not shown) [Compound I-13, 2-{1-ethyl-1H-pyrrolo[2,3-b]pyridin-2-yl}-7-methoxy-1-methyl-5-{octahydro-1H-pyrrolo[2,3-c]pyridine-6-carbonyl}-1H-1,3-benzodiazole]
1 to 10 µM	5 to 10 µM	COc1cc(C(=O)N2CCC3CCNC3C2)cc2nc(-c3cc4cncnc4n3CC3CC3)n(C)c12 (stereo not shown) [Compound I-15, 2-[7-(cyclopropylmethyl)-7H-pyrrolo[2,3-d]pyrimidin-6-yl]-7-methoxy-1-methyl-5-{octahydro-1H-pyrrolo[2,3-c]pyridine-6-carbonyl}-1H-1,3-benzodiazole]
1 to 10 µM	5 to 10 µM	CCn1c(-c2nc3cc(C(=O)N4CCC5CCNC5C4)ccc3n2C)cc2cccnc21 (stereo not shown) [Compound I-16]
> 100 µM	> 10 µM	Cn1c(-c2cc3cccnc3n2CC2CC2)nc2cc(C(=O)N3CC4CC3CN4)ccc21 (stereo not shown) [Compound I-37]
1 to 10 µM	5 to 10 µM	Cn1c(-c2cc3cccnc3n2CC2CC2)nc2cc(C(=O)N3CCC(F)C(N)C3)ccc21 (stereo not shown) [Compound I-49]
> 100 µM	> 10 µM	Cn1c(-c2cc3cccnc3n2CC2CC2)nc2cc(C(=O)N3CC4CCC(C3)C4N)ccc21 (stereo not shown) [Compound I-50]
1 to 10 µM	1 to 5 µM	COc1cc(C(=O)N2CC[C@@H](F)[C@H](N)C2)cc2nc(-c3cc4cccnc4n3CC3CC3)n(C)c12 [Compound I-57]
10 to 100 µM	> 10 µM	COc1cc(C(=O)N2CC[C@H](F)[C@@H](N)C2)cc2nc(-c3cc4cccnc4n3CC3CC3)n(C)c12 [Compound I-58]
10 to 100 µM	> 10 µM	Cn1c(-c2cc3cccnc3n2CC2CC2)nc2cc(C(=O)N3C4CCC(N)C3CC4)ccc21 (stereo not shown) [Compound I-63]
10 to 100 µM	> 10 µM	Cn1c(-c2cc3cccnc3n2CC2CC2)nc2cc(C(=O)N3C[C@H](N)C[C@H](F)C3)ccc21 [Compound I-67]
1 to 10 µM	1 to 5 µM	COc1cc(C(=O)N2C[C@H]3C[C@H](OC)[C@@H]2[C@@H]3N)cc2nc(-c3cc4cccnc4n3CC3CC3)n(C)c12 [Compound I-167, (1 S,4R,6S,7R)-2-{2-[1-(Cyclopropylmethyl)-1H-pyrrolo[2,3-b]pyridin-2-yl]-7-methoxy-1-methyl-1H-1,3-benzodiazole-5-carbonyl}-6-methoxy-2-azabicyclo[2.2.1]heptan-7-amine]
< 1 µM	< 1 µM	CCn1c(-c2nc3cc(C(=O)N4C[C@H]5CC[C@@H]4[C@@H]5N)cc(OC)c3n2C[C@H]2C[C@@](C)(OC)C2)cc2cccnc21 [Compound I-168]
< 1 µM	< 1 µM	COCCn1c(-c2nc3cc(C(=O)N4C[C@H]5CC[C@@H]4[C@@H]5N)cc(OC)c3n2C)cc2cccnc21 [Compound I-169]
